| melting point | SMILES |
| --- | --- |
| 150 to 152 °C | O=C(O)CCCc1ccc(S(=O)(=O)Nc2ccc(Cl)cc2)cn1 |
| 132 to 133 °C | Oc1ccc(-c2noc(C3(COc4c(F)cccc4OC(F)(F)F)CC3)c2-c2ccccc2)cc1 |
| 123 to 124 °C | CCOC(=O)C1Cc2cc3c(C)noc3c(Cl)c2O1 (stereo not drawn) |
| > 250 °C | COc1cc2c3c(c1OC)CCc1ccccc1C3CNC2 (stereo not drawn) |
| 198 °C | CCc1nnc(-c2ccc(NC)cc2)n1-c1ccc(OC)cc1 |
| 128 to 130 °C | COc1ccc2c(c1)CCNC2=O |
| 315 to 316 °C | COc1ccc(C(=O)Nc2ccc(S(N)(=O)=O)cc2)c(SSc2cc(OC)ccc2C(=O)Nc2ccc(S(N)(=O)=O)cc2)c1 |
| 81 to 82 °C | COc1cc2c(cc1OCc1ccccc1)CCN(Cc1cccc(C)c1)C2 |
| 239 to 240 °C | O=C(O)c1cn(C2CC2)c2c(F)c(N3CCCC(n4ccnn4)C3)c(F)cc2c1=O (stereo not drawn) |
| 193 to 194 °C | Cc1ccc(C(=O)NC(NC(=NC#N)Nc2cccc(F)c2)C(C)(C)C)cc1 (stereo not drawn) |
| 162 to 163 °C | O=C(NN1CCc2ccccc2C1)Oc1ccc2c(c1)CN(Nc1ccncc1)C2 |
| 132 °C | CNc1c([N+](=O)[O-])cc(C)cc1[N+](=O)[O-] |
| 206 °C | Nc1ccc2ccc(Oc3ccc(Cl)c(Cl)c3)nc2n1 |
| 130 to 132 °C | COc1c(Br)ccc2ccc(Cl)nc12 |
| 188 to 190 °C | CSc1ccc(C(=O)c2cc(C)cc(CC(N)=O)c2N)cc1 |
| 134 to 136 °C | O=S(=O)(Nc1cc(I)c(O)c2ccccc12)c1cccs1 |
| 112 to 113 °C | CCn1ncc2c(ON=C(C)C)c(C(=O)c3ccc(Cl)cc3)cnc21 |
| 157 to 159 °C | COc1ccc(-c2nc(C(F)(F)F)c[nH]2)cc1OC1CCCC1 |
| 206 to 208 °C | COc1ccc2c(c1)C(C#Cc1ccccc1)(C(F)(F)F)NC(=O)N2 (racemic) |
| 41 to 45 °C | O=C(CCl)c1ccc(CCO)cc1 |
| 164 to 165 °C | Nc1cccc(Br)c1-c1ncc[nH]1 |
| 197 to 200 °C | O=S(=O)(Nc1ccccc1OC(c1ccncc1)C1CCNCC1)c1ccc2cc(Br)ccc2c1 (stereo not drawn) |
| 90 to 93 °C | CCOC(=O)c1ccc(NCc2ccccc2)cc1 |

| melting point | SMILES |
| --- | --- |
| 65 to 70 °C | CN1CCN(CC2=NC(NC(=O)OCc3ccccc3)C(=O)N(C(C)(C(N)=O)c3ccccc3)c3ccccc32)CC1 (stereo not drawn) |
| 299 °C | O=c1c(-c2ccc(Cl)cc2)coc2cc(O)c(O)cc12 |
| 153 to 155 °C | CCC(=O)OC1CC2(CCN(CCCC(=O)c3ccc(F)cc3)C2)c2ccc(C)cc21 (stereo not drawn) |
| 156 to 158 °C | Oc1ccc2sc(C=C3C4CC5CC(C4)CC3C5)nc2c1 |
| 171 to 174 °C | O=C(O)Cc1ccc(OCc2ccccc2C(=O)O)cc1 |
| 111 to 112 °C | CS(=O)(=O)c1ccc(-c2ccc(C=O)n2-c2ccc(F)cc2)cc1 |
| 56 to 58 °C | O=C(O)CCCNC(=O)CCCCC1CCSS1 (stereo not drawn) |
| 157 to 158 °C | Cc1cccc(C)c1CNc1cc(Br)cc2c1nc(N(C)C)n2C |
| 298 °C | O=C1Nc2ccc(I)cc2C1=NNC(=O)c1ccc(OCc2ccccc2)cc1 |
| 147 °C | CC(C)(C)OC(=O)N1CCCC1COC(=O)N1CCN(c2cc(N3CCCC3)nc(N3CCCC3)n2)CC1 (single isomer, unassigned; (-)) |
| 205 to 207 °C | O=C1NC(=O)c2cc(Nc3ccccc3)c(Nc3ccccc3)cc21 |
| 102 to 107 °C | O=C(CCCN1CCN(c2cccc(Cl)c2)CC1)N1CCc2ccccc21 |
| 179 to 181 °C | CC(Oc1ncn(-c2ccc(Br)cc2)n1)C(N)=O (stereo not drawn) |
| 145 to 147 °C | CS(=O)(=O)NCCCCC(=O)Nc1nc2c(s1)CCCc1ccc(F)cc1-2 |
| 193 to 195 °C | CC(C)c1ccc(-c2nc(-c3cccc(C(=O)O)c3)cs2)cc1 |
| 112 to 113 °C | NCCCc1cn(C(c2ccccc2)(c2ccccc2)c2ccccc2)cn1 |
| 164 °C | N#CCC(=O)c1ccc(Br)cc1 |
| 172 to 175 °C | CN(C(=O)c1cnn(C)c1C(=O)Nc1ccn2nc(N3CCOCC3)nc2c1)C1CC1 |
| 145 to 146 °C | O=C(O)C1SC(c2ccccc2)=NN1C(=O)CCS (stereo not drawn) |
| 100 to 103 °C | CN(C(=O)OCc1ccccc1)[C@@H](CC(N)=O)C(=O)N[C@@H](Cc1ccccc1)[C@H](O)C(=O)N1CCC[C@H]1C(=O)NC(C)(C)C |
| 119 to 120 °C | COc1ccc(Sc2cnc(N)s2)cc1 |
| 134 °C | CC#CCOc1ccc(S(=O)[C@@H](C(=O)NO)c2ccc(OC)cc2)cc1 (stereo partly drawn) |

The next lines start with the compound.

| SMILES | melting point |
| --- | --- |
| CCc1nc2cc(S(N)(=O)=O)c(Cl)cc2n1-c1ccc(CCOC(=O)NS(=O)(=O)c2ccc(C)cc2)cc1 | 110 to 115 °C |
| Cc1nc2c(Cl)cccc2c(=O)n1C1CCC(=O)NC1=O (stereo not drawn) | 290 to 292 °C |
| CCN(CC)c1ccc(C2(c3ccc(N(CC)CC)cc3N(CC)CC)OC(=O)c3c(Cl)c(Cl)c(Cl)c(Cl)c32)cc1 (stereo not drawn) | 196 to 197 °C |
| Cc1ccc(NC(=O)N2CCN(C(=O)c3ccc(Nc4ccnc5cc(C(F)(F)F)ccc45)cc3)CC2)cc1 | 280 to 282 °C |
| Nc1nc(N)nc(-c2ccc(NS(=O)(=O)c3ccc4ccccc4c3)cc2)n1 | 230 to 233 °C |
| Fc1ccc(OC2CN(CCc3c[nH]c4ccccc34)C2)cc1 | 111 to 113 °C |
| CS(=O)c1ccc(-c2cc(C(F)F)nn2-c2ccc3c(c2)OCO3)cc1 (stereo not drawn) | 104 to 105 °C |
| O=c1ccsn1Cc1ccccc1 | 78 to 80 °C |
| CNC(=O)CCC(=O)c1ccccc1 | 80 to 82 °C |
| COC(=O)c1ccc(CNC(=O)c2c(N)cc(Cl)cc2Cl)cc1 | 132 to 137 °C |
| COc1cccc(Cn2cc3c(-c4cccc(C(=O)NCCC#N)c4)cccc3n2)c1 | 176 to 177 °C |
| Nc1nc(-c2ccccc2)c(CCO)c2ncnn12 | 194 to 195 °C |
| CCOC(=O)c1nc(-c2cccc([N+](=O)[O-])c2)cs1 | 149 to 150 °C |
| Clc1cccc2c(C3=CCNCC3)c[nH]c12 | 197 to 201 °C |
| COCCOc1cc(-n2c(=O)cc(C(F)(F)F)n(C)c2=O)c(F)cc1Cl | 84 to 87 °C |
| Cc1ccc2oc(=O)c(NC(=O)Nc3ccc(F)cc3F)c(-c3ccccc3Cl)c2c1 | 214 to 215 °C |
| COc1ccc2c(c1)CCc1nn(-c3nc4ccccc4s3)c(O)c1-2 | 182 to 183 °C |
| CCc1cccc2c3c([nH]c12)[C@@]1(CC(=O)O)CC[C@H]1CC3 (relative stereo) | 170 to 171 °C |
| Cc1oc2ccccc2c1C(=O)N(Cc1ccccc1)Cc1ccc2c(Br)c(O)ccc2c1 | 184 to 185 °C |
| COc1ccc(-c2cnc(NC(=S)Cc3ccccc3)c(Cc3ccccc3)n2)cc1 | 45 to 47 °C |
| N#Cc1cc(S(=O)(=O)C(F)(F)F)[nH]c1-c1ccc(Cl)cc1 | 228 to 230 °C |
| COc1ccc(N(C(=O)CN2C(=O)C(Cc3n[nH]c4c3CCCC4)C(=O)N(c3ccccc3)c3ccccc32)C(C)C)cc1 (stereo not drawn) | 170 to 173 °C |
| CC12CC(N3CCOCC3)C(O)CC1CCC1C2CCC2(C)C(O)C(N3CCCC3)CC12 (stereo not drawn) | 226 °C |
| Cc1cc2oc(=O)c3c(c2cc1C)CCNC3 | 173 to 175 °C |
| CC(C)(C)c1cc(Oc2c(Cl)cc(C(F)(F)F)cc2Cl)n[nH]1 | 170 to 172 °C |
| COc1nc(C)c(C(C)OC(=O)CCC(=O)O)cc1NC(=O)N1CCN(c2cc(C)cc(C)c2)CC1 (stereo not drawn) | 138 to 140 °C |
| CCSc1cc(C#N)c(Oc2ccc(Cl)c(Cl)c2)cn1 | 79 to 81 °C |

| SMILES | melting point |
| --- | --- |
| CCC(C(=O)c1ccc(OCc2ccccc2)cc1)c1ccc(OCc2ccccc2)cc1 (stereo not drawn) | 84 °C |
| O=C(O[C@@H]1CCN(CC#CCN2CCCC2)C1=O)c1ccc([N+](=O)[O-])cc1 | 89 to 90 °C |
| COc1ccccc1N1CCN(CCCCCC(=O)N2Cc3ccccc3C2)CC1 | 100 °C |
| COc1ccc(N2CCOCC2)c2sc(-c3nc4c([nH]3)COCC4)nc12 | 203 to 204 °C |
| COc1cc(C(C)C)c2c(c1)S(=O)(=O)N(COc1cc(C)nn1-c1ccc([N+](=O)[O-])cc1)C2=O | 196 to 198 °C |
| CCCCOCC(O)CN1C(=O)NC(=O)C(CC)(c2ccccc2)C1=O (stereo not drawn) | 92 °C |
| CCOC(=O)NN=Cc1ccnc2ccccc12 | 161 °C |
| O=C(Cn1c(-c2cccc(Br)c2)nc2cccnc21)N1CCCCC1 | 157 to 158 °C |
| Cn1c(Cl)cnc1C(c1cc(F)ccc1F)S(=O)(=O)c1ccc(Cl)cc1 (stereo not drawn) | 179 to 180 °C |
| CCCCN=C(O)c1c(Sc2ccc([N+](=O)[O-])cc2)c(Sc2ccccc2)c(Sc2ccccc2)c(Sc2ccc([N+](=O)[O-])cc2)c1C(=O)O | 175 to 177 °C |
| CC(Cc1cccc([N+](=O)[O-])c1)(NC(=O)CN1C(=O)c2ccccc2C1=O)c1ccccc1 (stereo not drawn) | 172 to 173 °C |
| OCC12CCCN(CC1)C2 (stereo not drawn) | 44 to 47 °C |
| NN1CCNC1=C[N+](=O)[O-] | 159 to 160 °C |
| CC(C)=NOc1cc(Cl)ccc1C#N | 83 to 84 °C |
| CC(=O)c1ccc(N(C)Cc2ccccc2)c(S(N)(=O)=O)c1 | 159 to 161 °C |
| Nn1cccc1C(=O)c1ccccc1Cl | 76 to 78 °C |
| O=C(O)CCP(=O)(O)c1ccccc1 | 158 to 161 °C |
| Cc1cc2c(-c3ccccc3)noc2c2c1OC(CO)C2 (stereo not drawn) | 130 to 133 °C |
| CCOC(=O)C(Cc1ccc(N)s1)NC(=O)OC(C)(C)C (racemic) | 132 °C |
| CCCCCCCCCCCCSc1nnn(C(C(=O)Nc2c(OC)cc(OC)cc2OC)c2ccccc2)n1 (stereo not drawn) | 141 to 143 °C |
| CSc1ccc(C2=C(c3ccc(C)cc3)CCC2)cc1 | 64.5 to 66.5 °C |
| C=Cc1ccc(CC(N)=O)nc1 | 120 to 121 °C |
| Nc1cc(CC(=O)O)cc2c1NC(C(F)(F)F)CC2 (stereo not drawn) | 180 to 181 °C |
| CC(C)C(NC(=O)Cc1ccc(-c2ccccc2)cc1)C(=O)Nc1n[nH]c(=S)s1 (stereo not drawn) | 232 to 236 °C |
| Cc1nc(-c2ccc(O)cc2)cc(-c2c(Cl)ccc(Cl)c2Cl)c1C#N | 191 to 195 °C |
| CC(C)(C)OC(=O)N1C(C(=O)O)CSC1c1cccnc1 (stereo not drawn) | 167 to 169 °C |

— a melting point compilation (Tetko et al.; mined from patent text by program, amines drawn as free bases though some values may be those of a salt)
